# Experimental data: US20240287070A1, “FUSED HETEROCYCLIC DERIVATIVES” (Janssen Sciences Ireland Unlimited Company, priority 2021, published 2024)
# Columns and labels:
# [1] = tested on: HBV (HepG2.117 cell line, inducibly HBV producing); assay: Anti-HBV activity, intracellular HBV DNA by real-time PCR in HepG2.117 cell line; format: cell-based, hepatitis B virus; details: HepG2.117 cells, 3 days of treatment
# How it was run: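 Read-out is intracellular HBV DNA, measured by real-time PCR using HBV-specific primers and probe. Cells were stable, inducible HBV-producing HepG2.117 (Tet-off). Serially diluted compound was applied for 3 days after replication was induced.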
# HepG2 or HepG2.117 cells = assay: Cytotoxicity, ATPlite Luminescence Assay; format: cell-based, human; details: 3-days incubation unless marked with *
# How it was run: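 Viability after compound treatment is read as ATP luminescence. Exposure lasts 3 or 4 days.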
# [2] = Human liver microsome stability; format: in vitro ADME
# How it was run: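 Single incubations with human liver microsomes started with 1 mM NADPH; samples taken at 0, 5, 10, 20, 40 and 60 min, quenched in acetonitrile (1:3). Cassette LC-MS analysis with internal standard; t½ derived from slope of ln peak-area ratio versus time (k = −gradient).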
# [3] = pooled human liver microsomes 0.5 mg/mL, 1 μM compound, NADPH 1 mM, 37° C., 0-60 min
smiles,measurement,setting,value
"C[C@@H]1Cc2nn3c(c2CN1C(=O)c1ccc(Cl)c(C(F)(F)F)c1)C(=O)N([C@H](C)c1ccc([S@@](C)(=O)=NC#N)cc1)C[C@H]3C (relative stereo) [Compound 20A, N—((R*)-(4-((R*)-1-((3R,7R)-2-(4-chloro-3-(trifluoromethyl)benzoyl)-3,7-dimethyl-10-oxo-1,3,4,7,8,10-hexahydropyrido[4′,3′:3,4]pyrazolo[1,5-a]pyrazin-9(2H)-yl)ethyl)phenyl)(methyl)(oxo)-16-sulfaneylidene)cyanamide]",EC50,[1],0.041 µM
same,CC50,HepG2 or HepG2.117 cells,> 50 µM
same,HLM Metabolism t1/2,[2]; [3],>3 h
"Cc1ccc(C(C)N2C[C@@H](C)n3nc4c(c3C2=O)CN(C(=O)c2ccc(Cl)c(Cl)c2)[C@H](C)C4)nn1 (single isomer, unassigned) [Compound 6B, (3R,7R)-2-(3,4-dichlorobenzoyl)-3,7-dimethyl-9-((S*)-1-(6-methylpyridazin-3-yl)ethyl)-1,2,3,4,8,9-hexahydropyrido[4′,3′:3,4]pyrazolo[1,5-a]pyrazin-10(7H)-one]",EC50,[1],0.065 µM
same,CC50,HepG2 or HepG2.117 cells,> 50 µM
same,HLM Metabolism t1/2,[2]; [3],>3 h
"C[C@@H]1Cc2nn3c(c2CN1C(=O)c1ccc(Cl)c(C(F)(F)F)c1)C(=O)N([C@H](C)c1ccc([S@@]2(=O)=NCCC2)nc1)C[C@H]3C (relative stereo) [Compound 30A, (3R,7R)-2-(4-chloro-3-(trifluoromethyl)benzoyl)-3,7-dimethyl-9-((R*)-1-(6-((R*)-1-oxido-4,5-dihydro-3H-116-isothiazol-1-yl)pyridin-3-yl)ethyl)-1,2,3,4,8,9-hexahydropyrido[4′,3′:3,4]pyrazolo[1,5-a]pyrazin-10(7H)-one]",EC50,[1],0.14 µM
same,CC50,HepG2 or HepG2.117 cells,> 50 µM
same,HLM Metabolism t1/2,[2]; [3],0.495 h
"C[C@@H]1Cc2nn3c(c2CN1C(=O)c1ccc(Cl)c(C(F)(F)F)c1)C(=O)N([C@@H](C)c1ccc([S@@](C)(=O)=NC#N)cc1)C[C@H]3C (relative stereo) [Compound 20C, N—((R*)-(4-((S*)-1-((3R,7R)-2-(4-chloro-3-(trifluoromethyl)benzoyl)-3,7-dimethyl-10-oxo-1,3,4,7,8,10-hexahydropyrido[4′,3′:3,4]pyrazolo[1,5-a]pyrazin-9(2H)-yl)ethyl)phenyl)(methyl)(oxo)-16-sulfaneylidene)cyanamide]",EC50,[1],0.016 µM
same,CC50,HepG2 or HepG2.117 cells,> 50 µM
same,HLM Metabolism t1/2,[2]; [3],1.02 h
"CC(c1ncccn1)N1C[C@@H](C)n2nc3c(c2C1=O)CN(C(=O)c1ccc(Cl)c(Cl)c1)[C@H](C)C3 (single isomer, unassigned) [Compound 39B, (3R,7R)-2-(3,4-dichlorobenzoyl)-3,7-dimethyl-9-((S*)-1-(pyrimidin-2-yl)ethyl)-1,2,3,4,8,9-hexahydropyrido[4′,3′:3,4]pyrazolo[1,5-a]pyrazin-10(7H)-one]",EC50,[1],0.035 µM
same,CC50,HepG2 or HepG2.117 cells,> 25 µM
same,HLM Metabolism t1/2,[2]; [3],>3 h
"Cc1nnnn1-c1ccc(C(C)N2C[C@@H](C)n3nc4c(c3C2=O)CN(C(=O)c2ccc(Cl)c(Cl)c2)[C@H](C)C4)cn1 (single isomer, unassigned) [Compound 27B, (3R,7R)-2-(3,4-dichlorobenzoyl)-3,7-dimethyl-9-((S*)-1-(6-(5-methyl-1H-tetrazol-1-yl)pyridin-3-yl)ethyl)-1,2,3,4,8,9-hexahydropyrido[4′,3′:3,4]pyrazolo[1,5-a]pyrazin-10(7H)-one]",EC50,[1],0.018 µM
same,CC50,HepG2 or HepG2.117 cells,> 50 µM
same,HLM Metabolism t1/2,[2]; [3],1.39 h
"C[C@@H]1Cc2nn3c(c2CN1C(=O)c1ccc(Cl)c(C(F)(F)F)c1)C(=O)N([C@H](C)c1ccc([S@](C)(=O)=NC#N)cc1)C[C@H]3C (relative stereo) [Compound 20B, N—((S*)-(4-((R*)-1-((3R,7R)-2-(4-chloro-3-(trifluoromethyl)benzoyl)-3,7-dimethyl-10-oxo-1,3,4,7,8,10-hexahydropyrido[4′,3′:3,4]pyrazolo[1,5-a]pyrazin-9(2H)-yl)ethyl)phenyl)(methyl)(oxo)-16-sulfaneylidene)cyanamide]",EC50,[1],0.089 µM
same,CC50,HepG2 or HepG2.117 cells,> 50 µM
same,HLM Metabolism t1/2,[2]; [3],2.6 h
"CC(c1ccn(CC(C)(C)O)c(=O)c1)N1C[C@@H](C)n2nc3c(c2C1=O)CN(C(=O)c1ccc(Cl)c(C(F)(F)F)c1)[C@H](C)C3 (single isomer, unassigned) [Compound 64B, (3R,7R)-2-(4-chloro-3-(trifluoromethyl)benzoyl)-9-((S*)-1-(1-(2-hydroxy-2-methylpropyl)-2-oxo-1,2-dihydropyridin-4-yl)ethyl)-3,7-dimethyl-1,2,3,4,8,9-hexahydropyrido[4′,3′:3,4]pyrazolo[1,5-a]pyrazin-10(7H)-one]",EC50,[1],0.085 µM
same,CC50,HepG2 or HepG2.117 cells,> 50 µM
same,HLM Metabolism t1/2,[2]; [3],>3 h
"CC(c1ccn(C(C)C)c(=O)c1)N1C[C@@H](C)n2nc3c(c2C1=O)CN(C(=O)c1ccc(Cl)c(C(F)(F)F)c1)[C@H](C)C3 (single isomer, unassigned) [Compound 47B, (3R,7R)-2-(4-chloro-3-(trifluoromethyl)benzoyl)-9-((S*)-1-(1-isopropyl-2-oxo-1,2-dihydropyridin-4-yl)ethyl)-3,7-dimethyl-1,2,3,4,8,9-hexahydropyrido[4′,3′:3,4]pyrazolo[1,5-a]pyrazin-10(7H)-one]",EC50,[1],0.016 µM
same,CC50,HepG2 or HepG2.117 cells,> 50 µM
same,HLM Metabolism t1/2,[2]; [3],2.4 h
"CC(c1ccc(N2CCCS2(=O)=O)nc1)N1C[C@@H](C)n2nc3c(c2C1=O)CN(C(=O)c1ccc(Cl)c(C(F)(F)F)c1)[C@H](C)C3 (single isomer, unassigned) [Compound 28B, (3R,7R)-2-(4-chloro-3-(trifluoromethyl)benzoyl)-9-((S*)-1-(6-(1,1-dioxidoisothiazolidin-2-yl)pyridin-3-yl)ethyl)-3,7-dimethyl-1,2,3,4,8,9-hexahydropyrido[4′,3′: 3,4]pyrazolo[1,5-a]pyrazin-10(7H)-one]",EC50,[1],0.011 µM
same,CC50,HepG2 or HepG2.117 cells,> 50 µM
same,HLM Metabolism t1/2,[2]; [3],2.37 h
"CC(c1ccc(C(C)(C)O)nc1)N1C[C@@H](C)n2nc3c(c2C1=O)CN(C(=O)c1ccc(Cl)c(C(F)(F)F)n1)[C@H](C)C3 (single isomer, unassigned) [Compound 62B, (3R,7R)-2-(5-chloro-6-(trifluoromethyl)picolinoyl)-9-((S*)-1-(6-(2-hydroxypropan-2-yl)pyridin-3-yl)ethyl)-3,7-dimethyl-1,2,3,4,8,9-hexahydropyrido[4′,3′:3,4]pyrazolo[1,5-a]pyrazin-10(7H)-one]",EC50,[1],0.068 µM
same,CC50,HepG2 or HepG2.117 cells,> 50 µM
same,HLM Metabolism t1/2,[2]; [3],2.07 h
"CC(c1cc(F)ccn1)N1C[C@@H](C)n2nc3c(c2C1=O)CN(C(=O)c1ccc(Cl)c(Cl)c1)[C@H](C)C3 (single isomer, unassigned) [Compound 32B]",EC50,[1],0.088 µM
same,CC50,HepG2 or HepG2.117 cells,> 50 µM
same,HLM Metabolism t1/2,[2]; [3],2.23 h
"CC(c1cnc(C(C)(C)O)cn1)N1C[C@@H](C)n2nc3c(c2C1=O)CN(C(=O)c1ccc(Cl)c(C(F)(F)F)c1)[C@H](C)C3 (single isomer, unassigned) [Compound 41B, (3R,7R)-2-(4-chloro-3-(trifluoromethyl)benzoyl)-9-((S*)-1-(5-(2-hydroxypropan-2-yl)pyrazin-2-yl)ethyl)-3,7-dimethyl-1,2,3,4,8,9-hexahydropyrido[4′,3′:3,4]pyrazolo[1,5-a]pyrazin-10(7H)-one]",EC50,[1],0.014 µM
same,CC50,HepG2 or HepG2.117 cells,> 50 µM
same,HLM Metabolism t1/2,[2]; [3],1.65 h
"CC(c1ccn(CC(F)(F)F)n1)N1C[C@@H](C)n2nc3c(c2C1=O)CN(C(=O)c1ccc(Cl)c(C#N)c1)[C@H](C)C3 (single isomer, unassigned) [Compound 42A, 2-chloro-5-((3R,7R)-3,7-Dimethyl-10-oxo-9-((R*)-1-(1-(2,2,2-trifluoroethyl)-1H-pyrazol-3-yl)ethyl)-1,2,3,4,7,8,9,10-octahydropyrido[4′,3′:3,4]pyrazolo[1,5-a]pyrazine-2-carbonyl)benzonitrile]",EC50,[1],0.12 µM
same,CC50,HepG2 or HepG2.117 cells,> 50 µM
same,HLM Metabolism t1/2,[2]; [3],>3 h
"CC(c1cnn(C(C)C)c(=O)c1)N1C[C@@H](C)n2nc3c(c2C1=O)CN(C(=O)c1ccc(Cl)c(C(F)(F)F)c1)[C@H](C)C3 (single isomer, unassigned) [Compound 53B, (3R,7R)-2-(4-chloro-3-(trifluoromethyl)benzoyl)-9-((S*)-1-(1-isopropyl-6-oxo-1,6-dihydropyridazin-4-yl)ethyl)-3,7-dimethyl-1,2,3,4,8,9-hexahydropyrido[4′,3′:3,4]pyrazolo[1,5-a]pyrazin-10(7H)-one]",EC50,[1],0.01 µM
same,CC50,HepG2 or HepG2.117 cells,> 50 µM
same,HLM Metabolism t1/2,[2]; [3],1.18 h
"CC(c1cnc(N2CCOC[C@@H]2C)nc1)N1C[C@@H](C)n2nc3c(c2C1=O)CN(C(=O)c1ccc(Cl)c(C(F)(F)F)c1)[C@H](C)C3 (single isomer, unassigned) [Compound 38B, (3R,7R)-2-(4-chloro-3-(trifluoromethyl)benzoyl)-3,7-dimethyl-9-((S*)-1-(2-((S)-3-methylmorpholino)pyrimidin-5-yl)ethyl)-1,2,3,4,8,9-hexahydropyrido[4′,3′:3,4]pyrazolo[1,5-a]pyrazin-10(7H)-one]",EC50,[1],0.012 µM
same,CC50,HepG2 or HepG2.117 cells,28.4 µM
same,HLM Metabolism t1/2,[2]; [3],0.642 h
"C[C@@H]1Cc2nn3c(c2CN1C(=O)c1ccc(Cl)c(C#N)c1)C(=O)N([C@@H](C)c1ccc(OC(F)F)cc1)C[C@H]3C (relative stereo) [Compound 1D, 2-Chloro-5-((3R,7R*)-9-((S*)-1-(4-(difluoromethoxy)phenyl)ethyl)-3,7-dimethyl-O-oxo-1,2,3,4,7,8,9,10-octahydropyrido[4′,3′:3,4]pyrazolo[1,5-a]pyrazine-2-carbonyl)benzonitrile]",EC50,[1],0.021 µM
same,CC50,HepG2 or HepG2.117 cells,> 50 µM
same,HLM Metabolism t1/2,"[2]; human, microsomes",>3 h
